Test results from patent publication US6689767B2, “Triterpenes having antibacterial activity” (Regents of the University of Minnesota, priority 2000, dated 2004).
Like-named read-outs stand apart in the source and are kept apart here.

Tests used:
Format in all cases: cell-based
Escherichia coli = test: Kirby-Bauer disk diffusion growth inhibition, Escherichia coli; details: for zone of inhibition at 0.125 µg/mL / zone of inhibition at 1000 µg/mL: Escherichia coli; for zone of inhibition at 0.125 µg/mL: read-out: Zone of inhibition Escherichia coli; for zone of inhibition at 1000 µg/mL: 1 mg/ml in DMSO
Procedure: (§1) The compounds disclosed herein were tested for growth inhibition against four strains of bacteria: Escherichia coli, Staphylococcus aureus, methicillin-resistant Staphylococcus aureus, and Bacillus subtilis. […] They represent […]. E. coli is a gram-negative, non-spore forming, rod-shaped, opportunistic pathogen that resides in the human digestive tract. S. aureus is a gram positive coccus, is usually found morphologically as a […], and is an opportunistic human pathogen, often residing on or in the skin. B. subtilis is a gram positive spore-forming rod. Its native environment is the soil. The chemicals were tested for growth-inhibition of the bacteria by the Kirby-Bauer method. See, e.g., Microbiology, third edition; Lansing M. Prescott, John P. Harley, and Donald A. Klein; Wm. C. Brown Publishers.
(§2) Mueller-Hinton agar (Difco Lab, Michigan) was prepared according to the manufacturer's directions, and 20 ml was dispensed in each sterile petri dish. Sterile nutrient broth (Difco Lab, Michigan) was also prepared according to the manufacturer's directions.
(§3) Bacteria were grown in liquid nutrient broth for 18 hours at 37° C. until they were turbid.
(§4) An aliquot of 0.5 ml of cultured bacteria was aseptically transferred to the surface of a Mueller-Hinton agar plat, and spread using a cotton-tipped swab. Plates were then allowed to dry for 5 minutes. Then a 10 mm diameter filter paper disk impregnated with the test chemical was placed with sterile forceps on the plate. The disks were impregnated with 100 μl of a solution of the test compound in DMSO or in water, at the indicated concentrations in Table 1.
(§5) The zones of inhibition were measured after 18 hours growth at 37° C. Tests were done in triplicate.
(§6) Additional compounds were tested for activity against E. coli, laboratory strain S. aureus (not methicillin resistant), and B. subtilis. The compounds were tested by the disk diffusion method, as in Example 1, with application of a 10 mg/mil solution of the test compound in DMSO.

Staphylococcus aureus = test: Kirby-Bauer disk diffusion growth inhibition, Staphylococcus aureus; details: for zone of inhibition at 0.125 µg/mL / zone of inhibition at 1000 µg/mL: Staphylococcus aureus; for zone of inhibition at 0.125 µg/mL: read-out: Zone of inhibition Staphylococcus aureus; for zone of inhibition at 1000 µg/mL: 1 mg/ml in DMSO
Procedure: as §1, §2, §3, §4, §5, §6
Derivatives of lupeol were tested for inhibition of bacterial growth using the Kirby-Bauer disk diffusion method and by growth in liquid culture. For the disk diffusion method, compounds were dissolved in DMSO and 100 μl was added to the 10 mm filter paper disk. The amount of compound applied to the disk varied. The amount applied for each compound was as follows: lupeol (50 μg), lupeol-3-maleate (15 μg), lupeol-3-thiodiglycolate (15 μg), lupeol-3-dimethyl succinate (60 μg), lupeol-3-phosphate (30 μg), lupenone (50 μg), lupenon-3-oxime (50 μg), lupeol-3-amine (50 μg), lupenon-1,2-ene-2-ol (50 μg). In liquid culture, the compounds were dissolved in DMSO at 1 mg/ml and then 100 μl was added to 7 ml of sterile broth, along with a 1/200 dilution of freshly grown bacterial liquid culture.

Bacillus subtilis = test: Kirby-Bauer disk diffusion growth inhibition, Bacillus subtilis; details: for zone of inhibition at 0.125 µg/mL / zone of inhibition at 1000 µg/mL: Bacillus subtilis; for zone of inhibition at 0.125 µg/mL: read-out: Zone of inhibition Bacillus subtilis; for zone of inhibition at 1000 µg/mL: 1 mg/ml in DMSO
Procedure: as §1, §2, §3, §4, §5, §6

[1] = 125 ng/ml in water, 100 μl on 10 mm disk, 18 hours 37° C.
[2] = 100 μl on 10 mm disk, 18 hours 37° C.
[3] = 5 mg/ml in DMSO, 100 μl on 10 mm disk, 18 hours 37° C.
[4] = 10 mg/ml in DMSO, 100 μl on 10 mm disk, 18 hours 37° C.

CC1(C)CCC23CC[C@@]4(C)C(CCC5[C@@]6(C)C=C(OC(=O)CCC(=O)O)C(=O)C(C)(C)C6CC[C@]54C)C2C1OC3 (stereo partly drawn) [3-Allobetulon-1-ene-2-succinate, 3-Allobetulon-1-en-2succinate]
0 mm: zone of inhibition at 0.125 µg/mL (Escherichia coli; [1]) | zone of inhibition at 0.125 µg/mL (Staphylococcus aureus; [1]) | zone of inhibition at 0.125 µg/mL (Bacillus subtilis; [1])

CC(=O)OC1CCC2(C)C(CCC3(C)C2CCC2C4C5OC(=O)C4(CCC5(C)C)CCC23C)C1(C)C (stereo not drawn) [3β-Acetoxy-19αH-19,28 lactone oleanan]
0 mm: Zone of inhibition Escherichia coli (Escherichia coli; [1]) | Zone of inhibition Staphylococcus aureus (Staphylococcus aureus; [1]) | Zone of inhibition Bacillus subtilis (Bacillus subtilis; [1])

CC1(C)CCC23CCC4(C)C(CCC5C6(C)CCC(OC(=O)CCCC(=O)O)C(C)(C)C6CCC54C)C2C1OC3 (stereo not drawn) [Allobetulin 3-glutarate, Allobetulin-3-glutarate]
0 mm: zone of inhibition at 0.125 µg/mL (Escherichia coli; [1]) | zone of inhibition at 1000 µg/mL (Escherichia coli; [2]) | zone of inhibition at 0.125 µg/mL (Staphylococcus aureus; [1]) | zone of inhibition at 1000 µg/mL (Staphylococcus aureus; [2]) | zone of inhibition at 0.125 µg/mL (Bacillus subtilis; [1]) | zone of inhibition at 1000 µg/mL (Bacillus subtilis; [2])

CC1(C)CCC23CC[C@@]4(C)C(CCC5[C@@]6(C)CCC(OP(=O)(O)O)C(C)(C)C6CC[C@]54C)C2C1OC3 (stereo partly drawn) [Allobetulin 3-phosphate, allobetulin-3-phosphate]
0 mm: zone of inhibition at 0.125 µg/mL (Escherichia coli; [1]) | zone of inhibition at 0.125 µg/mL (Staphylococcus aureus; [1]) | zone of inhibition at 0.125 µg/mL (Bacillus subtilis; [1])

CC1(C)CCC23CCC4(C)C(CCC5C6(C)CCC(OC(=O)CCC(=O)O)C(C)(C)C6CCC54C)C2C1OC3 (stereo not drawn) [Allobetulin 3-succinate, Allobetulin-3-succinate]
0 mm: Zone of inhibition Escherichia coli (Escherichia coli; [3]) | Zone of inhibition Staphylococcus aureus (Staphylococcus aureus; [3]) | Zone of inhibition Bacillus subtilis (Bacillus subtilis; [3])

CC1(C)CCC23CC[C@@]4(C)C(CCC5[C@@]6(C)CCC(OP(=O)(O)O)C(C)(C)C6CC[C@]54C)C2C1OC3=O (stereo partly drawn) [Allobetulin lactone phosphate, allobetulin lactone-3-phosphate]
0 mm: Zone of inhibition Escherichia coli (Escherichia coli; [1]) | Zone of inhibition Staphylococcus aureus (Staphylococcus aureus; [1]) | Zone of inhibition Bacillus subtilis (Bacillus subtilis; [1])

CC1(C)CCC23CC[C@@]4(C)C(CCC5[C@@]6(C)CC[C@H](O)C(C)(C)C6CC[C@]54C)C2C1OC3=O (stereo partly drawn) [Allobetulin lactone]
0 mm: zone of inhibition at 0.125 µg/mL (Escherichia coli; 18 h) | zone of inhibition at 0.125 µg/mL (Staphylococcus aureus; 18 h) | zone of inhibition at 0.125 µg/mL (Bacillus subtilis; 18 h)

CC1(C)CCC23CC[C@@]4(C)C(CCC5[C@@]6(C)CC[C@H](O)C(C)(C)C6CC[C@]54C)C2C1OC3 (stereo partly drawn) [Allobetulin]
0 mm: zone of inhibition at 1000 µg/mL (Escherichia coli; [2]) | zone of inhibition at 1000 µg/mL (Staphylococcus aureus; [2]) | zone of inhibition at 1000 µg/mL (Bacillus subtilis; [2])

CC1(C)CCC23CC[C@@]4(C)C(CCC5[C@@]6(C)CCC(=O)C(C)(C)C6CC[C@]54C)C2C1OC3 (stereo partly drawn) [Allobetulon]
0 mm: zone of inhibition at 0.125 µg/mL (Escherichia coli; [1]) | zone of inhibition at 0.125 µg/mL (Staphylococcus aureus; [1]) | zone of inhibition at 0.125 µg/mL (Bacillus subtilis; [1])

C=C(C)C1CCC2(COC(=O)CCCC(=O)O)CCC3(C)C(CCC4C5(C)CCC(O)C(C)(C)C5CCC43C)C12 (stereo not drawn) [Betulin 28-glutarate, Betulin-28-glutarate]
0 mm: zone of inhibition at 0.125 µg/mL (Escherichia coli; [1]) | zone of inhibition at 0.125 µg/mL (Staphylococcus aureus; [1]) | zone of inhibition at 0.125 µg/mL (Bacillus subtilis; [1])

C=C(C)[C@@H]1CC[C@]2(COC(=O)/C=C\C(=O)O)CC[C@]3(C)[C@H](CC[C@@H]4[C@@]5(C)CC[C@H](O)C(C)(C)[C@@H]5CC[C@]43C)[C@@H]12 [Betulin 28-maleate, Betulin-28-maleate]
0 mm: Zone of inhibition Escherichia coli (Escherichia coli; [4]) | Zone of inhibition Staphylococcus aureus (Staphylococcus aureus; [4]) | Zone of inhibition Bacillus subtilis (Bacillus subtilis; [4])

C=C(C)C1CCC2(COC(=O)CCC(=O)O)CC[C@@]3(C)C(CCC4[C@@]5(C)CCC(O)C(C)(C)C5CC[C@]43C)C12 (stereo partly drawn) [Betulin 28-succinate, Betulin-28-succinate]
0 mm: zone of inhibition at 1000 µg/mL (Escherichia coli; [2]) | zone of inhibition at 1000 µg/mL (Staphylococcus aureus; [2]) | zone of inhibition at 1000 µg/mL (Bacillus subtilis; [2])

C=C(C)C1CCC2(COC(=O)[C@@H](N)CCC(=O)OCc3ccccc3)CCC3(C)C(CCC4C5(C)CCC(OC(=O)[C@@H](N)CCC(=O)OCc6ccccc6)C(C)(C)C5CCC43C)C12 (stereo partly drawn) [Betulin Di-(L-glutamic acid γ-benzyl ester) ester]
0 mm: Zone of inhibition Escherichia coli (Escherichia coli; [1]) | Zone of inhibition Staphylococcus aureus (Staphylococcus aureus; [1]) | Zone of inhibition Bacillus subtilis (Bacillus subtilis; [1])
